# Experimental data from paper PMC10962836, “Cis-regulatory polymorphism at fiz ecdysone oxidase contributes to polygenic evolutionary response to malnutrition in Drosophila” (PLOS Genetics, 2024).
# Target: T1, Fiz (Drosophila melanogaster, UniProt Q9VY04)
# T1 construct: N-terminal RGS-6xHis tag kept; E. coli Rosetta Gami DE3, Ni-NTA; contains FAD
# T1 sequence (Q9VY04 2-646): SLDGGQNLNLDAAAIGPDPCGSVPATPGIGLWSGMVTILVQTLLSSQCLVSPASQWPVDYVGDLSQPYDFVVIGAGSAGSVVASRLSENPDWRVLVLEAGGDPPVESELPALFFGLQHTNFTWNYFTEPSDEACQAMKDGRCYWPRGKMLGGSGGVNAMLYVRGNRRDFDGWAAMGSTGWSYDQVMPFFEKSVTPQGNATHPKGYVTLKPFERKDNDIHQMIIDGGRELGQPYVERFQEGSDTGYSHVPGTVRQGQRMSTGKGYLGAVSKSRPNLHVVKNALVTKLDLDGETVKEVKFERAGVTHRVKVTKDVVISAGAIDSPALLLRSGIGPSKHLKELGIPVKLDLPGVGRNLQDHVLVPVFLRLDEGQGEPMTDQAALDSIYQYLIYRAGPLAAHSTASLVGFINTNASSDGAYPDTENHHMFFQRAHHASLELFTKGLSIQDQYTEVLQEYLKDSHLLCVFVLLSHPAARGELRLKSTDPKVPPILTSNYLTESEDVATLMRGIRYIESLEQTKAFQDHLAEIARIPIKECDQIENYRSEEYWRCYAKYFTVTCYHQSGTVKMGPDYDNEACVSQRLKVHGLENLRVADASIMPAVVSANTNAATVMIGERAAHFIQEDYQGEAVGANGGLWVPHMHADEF
# Assay: FAD content of purified protein (method in supplement)
# Assay type: binding
# Settings: co-purified from E. coli, no FAD addition told
smiles,measurement,value
Cc1cc2nc3c(=O)[nH]c(=O)nc-3n(C[C@H](O)[C@H](O)[C@H](O)COP(=O)(O)OP(=O)(O)OC[C@H]3O[C@@H](n4cnc5c(N)ncnc54)[C@H](O)[C@@H]3O)c2cc1C [FAD],FAD content of purified protein (method in supplement),we confirmed that our purified Fiz contained FAD
